Source: patent publication US20130171139A1, “NCAM-VASE AND NEURODEGENERATION” (priority 2010, published 2013)

Experiments:
Format in all cases: cell-based
[1] = test system: NCAM-VASE; assay: NCAM-VASE staining of cultured cortical astrocytes; details: PND4 rat cortical astrocytes; 2 days; 1 mM dbcAMP or 50 ng/ml FGF-2
Method: (§1) Expression of NCAM-VASE by astrocytes was also examined. Astrocytes (>90% GFAP-positive cells) were isolated from the cortices of PND4 rat and cultured for 2 days in the absence or presence of 1 mM dbcAMP or 50 ng/ml FGF-2 in DMEM/10% FBS. Treatment with dbcAMP or FGF is known to stimulate a reactive phenotype in astrocytes, such as is found in astrocytes in the glial scars that are characteristic of damaged CNS. The astrocytes were then fixed and costained for GFAP and NCAM-VASE (as shown in FIG. 4) or total NCAM (not shown).

[2] = test system: total NCAM; assay: Total NCAM staining of cultured cortical astrocytes; details: PND4 rat cortical astrocytes; 2 days; 1 mM dbcAMP or 50 ng/ml FGF-2
Method: as §1

[3] = test system: PND4 rat cerebellar granule neurons; assay: Neurite/axon outgrowth of cerebellar granule neurons cultured on 3T3 monolayers (control, NCAM or NCAM-VASE); details: FGF (0.1 ng/m) or forskolin added to culture medium
Method: It has previously been shown that soluble NCAM-Fc stimulates axon outgrowth over control monolayers as effectively as if it were expressed in the monolayer (Meiri et al, J. Neurosci, 1998, 18, 10429-10437). […]
[…] Cerebellar granule neurons were cultured on control, NCAM-expressing (NCAM) or NCAM-VASE-expressing (VASE) monolayers in the absence of presence of soluble NCAM-Fc or NCAM-VASE-Fc (VASE-Fc).

CCCC(=O)Nc1ncnc2c1ncn2[C@@H]1O[C@@H]2COP(=O)(O)O[C@H]2[C@H]1OC(=O)CCC [dBcAMP, dbcAMP, reference compound]
NCAM-VASE staining [1]: large upregulation
total NCAM staining [2]: large upregulation

FGF2: fibroblast growth factor, known to stimulate axon outgrowth from cerebellar granule neurons
axon length ([3]; NCAM-VASE-expressing monolayers): do not extend longer axons
axon outgrowth ([3]; control monolayers): stimulate axon outgrowth
NCAM-VASE staining [1]: large upregulation
total NCAM staining [2]: large upregulation
